According to patent US8946203B2, “Benzodioxane inhibitors of leukotriene production” (Boehringer Ingelheim International GmbH, priority 2012, dated 2015):

These compounds were tested against T1, human LTA4 hydrolase (Homo sapiens, UniProt P09960) (assay: LTA4H Enzyme assay (cleavage of Arg-AMC, fluorescence)). Conditions: not given.
T1 sequence (P09960 1-611): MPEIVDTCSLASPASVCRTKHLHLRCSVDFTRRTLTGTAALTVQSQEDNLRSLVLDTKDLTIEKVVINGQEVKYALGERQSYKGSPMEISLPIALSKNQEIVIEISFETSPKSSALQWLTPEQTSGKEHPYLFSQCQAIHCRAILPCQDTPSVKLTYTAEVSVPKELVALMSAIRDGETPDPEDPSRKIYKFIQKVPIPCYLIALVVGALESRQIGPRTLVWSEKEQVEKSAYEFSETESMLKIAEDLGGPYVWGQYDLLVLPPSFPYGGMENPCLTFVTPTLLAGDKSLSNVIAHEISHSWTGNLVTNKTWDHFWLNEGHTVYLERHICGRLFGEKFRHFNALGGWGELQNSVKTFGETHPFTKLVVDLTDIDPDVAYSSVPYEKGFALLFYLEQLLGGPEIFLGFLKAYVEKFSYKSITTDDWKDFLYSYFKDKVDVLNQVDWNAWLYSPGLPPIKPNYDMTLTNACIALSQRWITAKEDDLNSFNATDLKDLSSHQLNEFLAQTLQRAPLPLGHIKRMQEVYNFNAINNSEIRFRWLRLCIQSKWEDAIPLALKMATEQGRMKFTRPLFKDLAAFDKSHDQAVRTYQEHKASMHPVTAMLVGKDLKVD
Assay type: biochemical
In short: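 Aminomethylcoumarin release measured fluorimetrically (380/460 nm) after 1 h at room temperature. Reaction: 1 nM final enzyme, 50 μM final Arg-AMC and compound in Tris-HCl pH 7.5 with 100 mM KCl and 0.5% BSA.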

IC50 [nM]	SMILES
0.61	COC1CCN(Cc2ccc([C@H]3COc4ccccc4O3)cc2)CC1 [Example 98, 1-{4-[(2S)-2,3-dihydro-1,4-benzodioxin-2-yl]benzyl}-4-methoxypiperidine]

Same assay, conditions: LTA4H Enzyme 1 nM, Arg-AMC substrate 50 μM, room temperature 1 h, fluorescence; read-out: IC50 values of LTA4H Enzyme assay

SMILES	IC50 [nM]
O=C(C1CCN(Cc2ccc([C@H]3COc4cccnc4O3)cc2)CC1)N1CCOCC1 [Example 162, (1-{4-[(3S)-2,3-dihydro[1,4]dioxino[2,3-b]pyridin-3-yl]benzyl}piperidin-4-yl)(morpholin-4-yl)methanone]	0.14
CNC(=O)C1CCN(Cc2ccc([C@H]3COc4ccccc4O3)cc2)CC1 [Example 179, 1-{4-[(2S)-2,3-dihydro-1,4-benzodioxin-2-yl]benzyl}-N-methylpiperidine-4-carboxamide]	0.16
CN(CCc1ccccn1)Cc1ccc(C2COc3ccccc3O2)cc1 (racemic) [Example 42, N-[4-(2,3-dihydro-1,4-benzodioxin-2-yl)benzyl]-N-methyl-2-(pyridin-2-yl)ethanamine]	0.69
CC1(C(=O)O)CCN(Cc2ccc([C@H]3COc4ccccc4O3)cc2)CC1 [Example 211, 1-[(S)-4-(2,3-Dihydro-benzo[1,4]dioxin-2-yl)-benzyl]-4-methyl-piperidine-4-carboxylic acid]	0.69
c1ccc2c(c1)OC[C@H](c1ccc(CN3CCC(c4nnn[nH]4)CC3)cc1)O2 [Example 216, 1-[(S)-4-(2,3-Dihydro-benzo[1,4]dioxin-2-yl)-benzyl]-4-(1H-tetrazol-5-yl)-piperidine]	0.13
c1ccc2c(c1)OC[C@H](c1ccc(CN(CC3CC3)C3CCCCC3)cc1)O2 [Example 95, N-(cyclopropylmethyl)-N-{4-[(2S)-2,3-dihydro-1,4-benzodioxin-2-yl]benzyl}cyclohexanamine]	0.49
O=S1(=O)CCN(Cc2ccc([C@H]3COc4cccnc4O3)cc2)CC1 [Example 161, (3S)-3-{4-[(1,1-dioxidothiomorpholin-4-yl)methyl]phenyl}-2,3-dihydro[1,4]dioxino[2,3-b]pyridine]	0.41
N#CC1CCN(Cc2ccc([C@H]3COc4cccnc4O3)cc2)CC1 [Example 159, 1-{4-[(3S)-2,3-dihydro[1,4]dioxino[2,3-b]pyridin-3-yl]benzyl}piperidine-4-carbonitrile]	0.16
NC(=O)[C@H]1CC[C@H](NCc2ccc([C@H]3COc4ccccc4O3)cc2)CC1 [Example 66, trans-4-({4-[(2S)-2,3-dihydro-1,4-benzodioxin-2-yl]benzyl}amino)cyclohexane-carboxamide]	1.79
CN1CCC(N(C)Cc2ccc([C@H]3COc4ccccc4O3)cc2)CC1 [Example 110, N-{4-[(2S)-2,3-dihydro-1,4-benzodioxin-2-yl]benzyl}-N,1-dimethylpiperidin-4-amine]	2.15
CS(=O)(=O)N1CCC(NCc2ccc([C@H]3COc4cccnc4O3)cc2)CC1 [Example 167, N-{4-[(3S)-2,3-dihydro[1,4]dioxino[2,3-b]pyridin-3-yl]benzyl}-1-(methylsulfonyl)piperidin-4-amine]	0.27
O=C(O)C[C@H]1CCN(Cc2ccc([C@H]3COc4ccccc4O3)cc2)C1 [Example 184, [(3R)-1-{4-[(2S)-2,3-dihydro-1,4-benzodioxin-2-yl]benzyl}pyrrolidin-3-yl]acetic acid]	0.11
c1cncc(CNCc2ccc(C3COc4ccccc4O3)cc2)c1 (racemic) [Example 54, 1-[4-(2,3-dihydro-1,4-benzodioxin-2-yl)phenyl]-N-(pyridin-3-ylmethyl)methanamine]	5.93
O=C(CO)NC1CCN(Cc2ccc([C@H]3COc4cccnc4O3)cc2)CC1 [Example 222, N-(1-{4-[(3S)-2,3-dihydro[1,4]dioxino[2,3-b]pyridin-3-yl]benzyl}piperidin-4-yl)-2-hydroxyacetamide]	0.14
O=C(O)[C@H]1CC[C@@H](NCc2ccc([C@H]3COc4ccccc4O3)cc2)C1 [Example 191, (1S,3R)-3-({4-[(2S)-2,3-dihydro-1,4-benzodioxin-2-yl]benzyl}amino)cyclopentane-carboxylic acid]	1.62
CN(CC(=O)O)Cc1ccc([C@H]2COc3ccccc3O2)cc1 [Example 60, N-{4-[(2S)-2,3-dihydro-1,4-benzodioxin-2-yl]benzyl}-N-methylglycine]	31
CN(C)C(=O)CC1CCN(Cc2ccc([C@H]3COc4cccnc4O3)cc2)CC1 [Example 171, 2-(1-{4-[(3S)-2,3-dihydro[1,4]dioxino[2,3-b]pyridin-3-yl]benzyl}piperidin-4-yl)-N,N-dimethylacetamide]	0.45
CC(=O)N1CC[C@H](NCc2ccc([C@H]3COc4ccccc4O3)cc2)C1 [Example 65, 1-[(3S)-3-({4-[(2S)-2,3-dihydro-1,4-benzodioxin-2-yl]benzyl}amino)pyrrolidin-1-yl]ethanone]	1.15

Next, values leading:

IC50 [nM]	SMILES
2.79	O=S1(=O)CCN(Cc2ccc(C3COc4ccccc4O3)cc2)CC1 (racemic) [Example 7, 4-[4-(2,3-dihydro-1,4-benzodioxin-2-yl)benzyl]thiomorpholine 1,1-dioxide]
40.1	c1ccc2c(c1)OC[C@@H](c1ccc(CN3CCOCC3)cc1)O2 (single isomer, unassigned) [Example 199]
3.03	F[C@H]1CCN(Cc2ccc(C3COc4ccccc4O3)cc2)C1 (mixture of isomers) [Example 115, (3S)-1-[4-(2,3-dihydro-1,4-benzodioxin-2-yl)benzyl]-3-fluoropyrrolidine]
3.4	CC(C)(O)C1CCN(Cc2ccc(C3COc4ccccc4O3)cc2)CC1 (racemic) [Example 28, 2-{1-[4-(2,3-dihydro-1,4-benzodioxin-2-yl)benzyl]piperidin-4-yl}propan-2-ol]
1.59	O=C(O)C1CCN(Cc2ccc([C@@H]3COc4ccccc4O3)cc2)CC1 [Example 201, (R)-1-[4-(2,3-Dihydro-benzo[1,4]dioxin-2-yl)-benzyl]-piperidine-4-carboxylic acid]
0.82	c1ccc2c(c1)OCC(c1ccc(CN3CCCCCC3)cc1)O2 (racemic) [Example 40, 1-[4-(2,3-dihydro-1,4-benzodioxin-2-yl)benzyl]azepane]
0.29	O=C(O)C[C@H]1CCCN(Cc2ccc([C@H]3COc4ccccc4O3)cc2)C1 [Example 182, [(3R)-1-{4-[(2S)-2,3-dihydro-1,4-benzodioxin-2-yl]benzyl}piperidin-3-yl]acetic acid]
2.69	c1ccc2c(c1)OC[C@@H](c1ccc(CN3CCCC3)cc1)O2 (single isomer, unassigned) [Example 197]
2.45	N#CCN1CCCC12CCN(Cc1ccc([C@H]3COc4ccccc4O3)cc1)C2 (stereo partly drawn) [Example 124, (7-{4-[(2S)-2,3-dihydro-1,4-benzodioxin-2-yl]benzyl}-1,7-diazaspiro[4.4]non-1-yl)acetonitrile]
1.73	COC1CCN(Cc2ccc(C3COc4ccccc4O3)cc2)C1 (racemic) [Example 47, 1-[4-(2,3-dihydro-1,4-benzodioxin-2-yl)benzyl]-3-methoxypyrrolidine]
0.6	O=C1CCCN1CC1CCN(Cc2ccc(C3COc4ccccc4O3)cc2)CC1 (racemic) [Example 50, 1-({1-[4-(2,3-dihydro-1,4-benzodioxin-2-yl)benzyl]piperidin-4-yl}methyl)pyrrolidin-2-one]
